According to PMC9038752, “Molecular mechanisms of bifunctional vitamin D receptor agonist-histone deacetylase inhibitor hybrid molecules in triple-negative breast cancer” (Scientific Reports, 2022):

Biological target: T1, VDR (Mus musculus, UniProt P48281)
T1 construct: endogenous in cells; host or cells: 4TO7 and 4T1 mouse triple-negative breast cancer cells
T1 sequence (P48281 1-422): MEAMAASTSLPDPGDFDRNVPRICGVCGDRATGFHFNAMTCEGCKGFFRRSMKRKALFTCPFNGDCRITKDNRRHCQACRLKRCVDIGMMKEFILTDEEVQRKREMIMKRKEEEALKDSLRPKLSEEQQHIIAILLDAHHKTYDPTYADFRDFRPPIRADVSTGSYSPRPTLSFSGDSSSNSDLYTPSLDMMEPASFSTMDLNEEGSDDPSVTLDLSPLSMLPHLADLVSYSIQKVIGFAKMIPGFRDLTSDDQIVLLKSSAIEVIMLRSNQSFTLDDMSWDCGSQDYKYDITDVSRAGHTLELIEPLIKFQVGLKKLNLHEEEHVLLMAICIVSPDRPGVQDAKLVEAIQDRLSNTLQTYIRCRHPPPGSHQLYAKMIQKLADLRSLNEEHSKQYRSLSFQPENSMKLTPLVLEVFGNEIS
Assay: Cyp24a1 induction assay for VDR agonism in 4TO7 cells
Type: cell-based
Details: 24 h
Protocol: Figure 5 (a) and (b) Analysis of induced Cyp24a1 expression in 4TO7 (a) and 4T1 (b) cells to test for VDR agonism of DK-406 and heterocyclic analogues after 24 h treatment. c-e. Analysis of the cytotoxicity of hybrid compounds after 24 h using the MTGlo assay (see Methods for details) in 4TO7 (c), 4T1 (d) and MDA-MB-231 (e) cells. […] Each condition was compared to control. *: p ≤ 0.05, **: p ≤ 0.01, ***: p ≤ 0.001, ****: p ≤ 0.0001, ns: not significant.
As previously, we were interested in studying the efficacy of hybrids in models of TNBC. We used the 4T1 cell line[20] as well as the related TNBC cell line 4TO7, which was derived from the same mouse tumor as 4T1 cells in Balb/c mice[33]. 4TO7 cells readily form primary tumors. […] These lines also have the advantage that anti-tumor efficacy studies can be performed in Balb/c mice, which have intact immune systems. Compounds were initially tested for VDR agonist activity in 4TO7 cells by screening induction of the VDR target gene Cyp24a1. […] The pyridyl hybrids were then tested for efficacy in vitro in 4TO7 and 4T1 cells using an MT-Glo assay in which only viable cells can convert a precursor into a substrate for a luciferase bioluminescence assay (Fig. 5c,d; see Methods for details).
Mouse 4T07 cells and 4T01 cells were cultured in DMEM (319–005-CL; WISENT Inc.) supplemented with 10% heat-inactivated FBS. MB-MDA231 cells were cultured in Leibovitz’s L-15 medium with 10% heat-inactivated FBS in the absence of CO2.
RNA extraction was performed with the FavorPrep tissue total RNA mini kit (FAVORGEN Biotech Corporation—FATRK 001) as per manufacturer’s instructions. cDNA was obtained from 1 µg of RNA using 5X All-in-One RT Mastermix (Applied Biological Materials (abm) Inc.—G485) and diluted 5 times. qPCR was performed with BrightGreen 2X q-PCR MasterMix (abm—MasterMix-LR-XL) on a Roche LightCycler 96 system. Expression of targeted genes was normalized to 18S RNA.

VDR agonist activity (Cyp24a1 induction)	potency in Cyp24a1 induction assay relative to DK-406	SMILES
partial agonists	–	CCC(CC)(c1ccc(C(=O)NCCCCCC(=O)NO)cc1)c1ccc(OCC(O)C(C)(C)C)c(C)c1 (centres unmarked) [DK-406]
weakly potent VDR agonists	–	CCC(CC)(c1ccc(OCC(O)C(C)(C)C)c(C)c1)c1ccc(OCCCC(=O)NO)cn1 (centres unmarked) [AM-171]
weakly potent VDR agonists	–	CCC(CC)(c1ccc(OCC(O)C(C)(C)C)c(C)c1)c1ccc(OCC(=O)NO)cn1 (centres unmarked) [AM-155]
partial agonists	approximately tenfold	CCC(CC)(c1ccc(OCCCCCC(=O)NO)cc1)c1ccc(OCC(O)C(C)(C)C)c(C)n1 (centres unmarked) [AM-193]
